From PubChem BioAssay AID1259348 (Broad Institute, 2017)
Calls of active or inactive are those of the source.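 The calls were made as follows: active = any compound with an IC50 of 100 nM or lower; inactive = the rest.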

Target: Insulin-degrading enzyme (Homo sapiens) (UniProt P14735)
Experiment: IDE catalytic activity blockers, fluorogenic substrate – biochemical, kinetic mode, counter-screen for IDE exo-site inhibitor project, dose response (AID 1259348);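 as to z-score: purified IDE bound to fluorescein-labelled 6b probe FL-6b at the exo-site; probe displacement lowers polarization so hits show a drop in FP signal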
Conditions: purified human IDE, fluorogenic decapeptide proteolysis; for z-score: measured here: primary FP probe displacement screen, stronger effect = lower value

Sequence of Insulin-degrading enzyme (Homo sapiens) (P14735 42-1019 limits assumed): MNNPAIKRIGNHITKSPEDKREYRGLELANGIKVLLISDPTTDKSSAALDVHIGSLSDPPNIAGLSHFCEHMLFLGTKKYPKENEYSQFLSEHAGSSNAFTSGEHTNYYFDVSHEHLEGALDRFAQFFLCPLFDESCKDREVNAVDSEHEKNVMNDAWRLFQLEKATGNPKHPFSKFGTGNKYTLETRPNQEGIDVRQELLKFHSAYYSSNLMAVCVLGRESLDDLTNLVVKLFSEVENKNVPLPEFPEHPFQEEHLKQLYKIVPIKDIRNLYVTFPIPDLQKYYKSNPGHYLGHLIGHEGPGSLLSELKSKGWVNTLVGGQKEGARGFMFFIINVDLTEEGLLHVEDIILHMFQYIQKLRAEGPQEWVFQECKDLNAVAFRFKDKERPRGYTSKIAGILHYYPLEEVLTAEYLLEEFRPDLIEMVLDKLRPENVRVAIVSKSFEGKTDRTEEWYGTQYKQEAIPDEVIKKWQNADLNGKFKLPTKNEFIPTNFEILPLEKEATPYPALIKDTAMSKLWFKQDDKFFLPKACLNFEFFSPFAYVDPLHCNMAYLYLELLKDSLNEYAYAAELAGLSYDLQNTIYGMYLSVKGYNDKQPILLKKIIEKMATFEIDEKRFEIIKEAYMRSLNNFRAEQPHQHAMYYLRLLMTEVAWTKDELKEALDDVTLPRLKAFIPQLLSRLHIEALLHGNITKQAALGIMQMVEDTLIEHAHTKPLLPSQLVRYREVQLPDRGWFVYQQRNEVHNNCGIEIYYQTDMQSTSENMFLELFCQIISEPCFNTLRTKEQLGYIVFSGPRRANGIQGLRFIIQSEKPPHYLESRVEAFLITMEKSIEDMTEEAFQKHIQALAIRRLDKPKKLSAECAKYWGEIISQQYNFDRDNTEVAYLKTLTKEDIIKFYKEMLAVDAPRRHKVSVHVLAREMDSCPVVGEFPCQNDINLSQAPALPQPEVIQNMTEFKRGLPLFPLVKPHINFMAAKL

SMILES	IC50	z-score
COc1ccccc1-c1ccc([C@@H]2[C@@H](C#N)N(C(=O)c3cccnc3)[C@@H]2CO)cc1	1.2 µM	-33.8
Cc1cccc(-c2ccc([C@@H]3[C@@H](CO)N4C(=O)CN(C(=O)Cc5ccccn5)C[C@@H]34)cc2)c1	3.3 µM	-11.8
COc1ccccc1-c1ccc([C@H]2[C@@H](CO)N3CCCCN(C(=O)c4ccncc4)C[C@H]23)cc1	4.9 µM	-17.2
CCS(=O)(=O)N1CCCCN2[C@H](CO)[C@@H](c3ccc(-c4ccccc4C)cc3)[C@@H]2C1	0.41 µM	-18.3
O=C(CC1CC1)N1CC(=O)N2[C@H](C1)[C@H](c1ccc(C#Cc3ccccc3)cc1)[C@@H]2CO	7.1 µM	-15.9
COc1ccc(NC(=O)N2CCCCN3[C@H](CO)[C@H](c4ccc(-c5ccccc5C)cc4)[C@@H]3C2)cc1	3.4 µM	-0.82
Cc1cccc(-c2ccc([C@@H]3[C@@H](CO)N4CCCCN(S(=O)(=O)c5cccc(C)c5)C[C@@H]34)cc2)c1	1 µM	-9.77
Cc1cccc(-c2ccc([C@@H]3[C@H]4CN(C(=O)c5ccncc5)CCCCN4[C@H]3CO)cc2)c1	4.9 µM	-17
Cc1ccccc1-c1ccc([C@H]2[C@@H](CO)N3CCCCN(C(=O)NC4CCCC4)C[C@@H]23)cc1	0.4 µM	-19.3
Cc1ccccc1-c1ccc(C2[C@@H]3CN(C(=O)c4cnccn4)C[C@H]2N3)cc1 (stereo not given in full)	2 µM	-20
Cc1ccccc1-c1ccc([C@@H]2[C@H](CO)N3CCCCN(C(=O)Cc4ccccn4)C[C@@H]23)cc1	4.9 µM	-15.5
Cc1ccccc1-c1ccc(C2[C@@H]3CN(Cc4cncnc4)C[C@H]2N3)cc1 (stereo not given in full)	6.7 µM	-2.59
Cc1cccc(-c2ccc([C@H]3[C@H](CO)N4C(=O)CN(C(=O)NC5CCCCC5)C[C@@H]34)cc2)c1	3.2 µM	-16.3
Cc1cccc(-c2ccc([C@@H]3[C@@H](CO)N4CCCCN(C(=O)c5ccc6c(c5)OCO6)C[C@@H]34)cc2)c1	> 100 µM (inactive)	–
Cc1cccc(-c2ccc([C@@H]3[C@@H](CO)N4CCCCN(S(=O)(=O)c5cn(C)cn5)C[C@@H]34)cc2)c1	0.9 µM	-17.5
Cc1ccccc1-c1ccc([C@@H]2[C@@H](CO)N3CCCCN(C(=O)NC4CCCC4)C[C@H]23)cc1	3.6 µM	-14.5
CN1C(=O)c2cc(NC(=O)Nc3ccccc3Cl)ccc2OC[C@H]2O[C@H](CC(=O)NCCCN3CCOCC3)CC[C@@H]21	1.7 µM	-14.2
Cc1ccccc1-c1ccc([C@H]2[C@@H](CO)N3C(=O)CN(C(=O)Nc4ccc(F)cc4)C[C@H]23)cc1	0.47 µM	-21.3
COc1cccc(-c2ccc([C@@H]3[C@@H](CO)N4CCCCN(C(=O)Cc5ccncc5)C[C@@H]34)cc2)c1	14.7 µM	-2.33
Cc1ccccc1-c1ccc([C@H]2[C@H](CO)N3C(=O)CN(C(=O)Cc4ccccn4)C[C@@H]23)cc1	4.4 µM	-13.9
Cc1ccccc1-c1ccc(C2[C@@H]3CN(C(=O)C4CCCCC4)C[C@H]2N3)cc1 (stereo not given in full)	1.5 µM	-13.9
Cc1ccccc1-c1ccc([C@@H]2[C@@H](CO)N3CCCCN(S(=O)(=O)c4ccc(F)cc4)C[C@@H]23)cc1	0.34 µM	-17.5
COc1ccccc1NC(=O)N1CCCCN2[C@H](CO)[C@@H](c3ccc(-c4cccc(C)c4)cc3)[C@@H]2C1	7.6 µM	-2.84
Cc1ccccc1-c1ccc([C@H]2[C@@H](CO)N3CCCCN(C(=O)Nc4ccc(F)cc4)C[C@@H]23)cc1	3 µM	-1.63

SMILES	IC50	z-score
Cc1ccccc1-c1ccc([C@@H]2[C@@H](CO)N3CCCCN(C(=O)CN4CCOCC4)C[C@@H]23)cc1	6.4 µM	-8
Cc1ccccc1-c1ccc(C2[C@@H]3CN(S(=O)(=O)c4cn(C)cn4)C[C@H]2N3)cc1 (stereo not given in full)	3.9 µM	-16.6
Cc1ccccc1-c1ccc([C@H]2[C@H]3CN(C(=O)NC4CCCC4)CC(=O)N3[C@H]2CO)cc1	6 µM	-12.4
Cc1cccc(-c2ccc([C@H]3[C@@H](CO)N4CCCCN(C(=O)c5ccncc5)C[C@H]34)cc2)c1	3 µM	-18.3
Cc1ccccc1-c1ccc([C@H]2[C@@H](CO)N3CCCCN(C(=O)c4cccnc4)C[C@H]23)cc1	3.1 µM	-16.5
CO[C@@H]1CN(C)C(=O)c2cc(NC(=O)c3ccc(Oc4ccccc4)cc3)ccc2OC[C@@H](C)NC[C@H]1C	2.5 µM	-13.5
Cc1ccccc1-c1ccc([C@H]2[C@H](CO)N3C(=O)CN(C(=O)c4ccncc4)C[C@@H]23)cc1	4.5 µM	-7.39
COc1cccc(-c2ccc([C@@H]3[C@@H](CO)N4CCCCN(CC5CC5)C[C@@H]34)cc2)c1	22.5 µM	-2.88
Cc1cccc(-c2ccc([C@@H]3[C@@H](CO)N4C(=O)CN(C(=O)c5cnccn5)C[C@@H]34)cc2)c1	5 µM	-17.5
CO[C@H]1CN(C)C(=O)c2cc(NC(=O)c3ccc(Oc4ccccc4)cc3)ccc2OC[C@H](C)NC[C@H]1C	2.8 µM	-14.2
Cc1ccccc1-c1ccc([C@H]2[C@H](CO)N3C(=O)CN(C(=O)c4ccc(F)cc4)C[C@@H]23)cc1	3 µM	-16.5
Cc1ccccc1-c1ccc([C@H]2[C@@H](CO)N3CCCCN(C(=O)NC4CCCC4)C[C@H]23)cc1	0.88 µM	-17.3
Cc1ccccc1-c1ccc([C@H]2[C@H]3CN(C(=O)NC4CCCC4)CCCCN3[C@H]2CO)cc1	5.6 µM	-5.69
Cc1ccccc1-c1ccc([C@H]2[C@@H](CO)N3C(=O)CN(C(=O)c4cccnc4)C[C@H]23)cc1	2 µM	-17.2
Cc1ccccc1-c1ccc([C@@H]2[C@@H](CO)N3C(=O)CN(S(C)(=O)=O)C[C@@H]23)cc1	1.8 µM	-12.7
CCC(=O)N1[C@H](CO)[C@H](c2ccc(-c3ccccc3OC)cc2)[C@H]1CNC(C)=O	10.7 µM	-8.24
CCCNC(=O)N1CC(=O)N2[C@@H](CO)[C@@H](c3ccc(C#Cc4cccc(OC)c4)cc3)[C@@H]2C1	11 µM	-1.33
COc1ccccc1-c1ccc([C@H]2[C@@H](CO)N3CCCCN(C(=O)c4cccnc4)C[C@H]23)cc1	13.2 µM	-12.8
Cc1ccccc1-c1ccc([C@@H]2[C@H]3CN(C(=O)Cc4ccccn4)CC(=O)N3[C@H]2CO)cc1	2 µM	-17.7
Cc1ccccc1-c1ccc([C@H]2[C@@H](CO)N3CCCCN(C(=O)Nc4ccccc4)C[C@@H]23)cc1	2.9 µM	-1.37
Cc1cccc(-c2ccc([C@@H]3[C@@H](CO)N4CCCCN(CCC(F)(F)F)C[C@@H]34)cc2)c1	71.5 µM	-0.68
COc1ccccc1-c1ccc([C@H]2[C@@H](CO)N3CCCCN(C(=O)NC4CCCC4)C[C@H]23)cc1	2.6 µM	-19.1
Cc1ccccc1-c1ccc([C@H]2[C@@H](CO)N3CCCCN(C(=O)Cc4ccccn4)C[C@@H]23)cc1	50 µM	-5.7
Cc1ccccc1-c1ccc([C@H]2[C@H](CO)N3CCCCN(CC4CC4)C[C@@H]23)cc1	30 µM	-2.04
